In patent US11596639B2, “Substituted indole Mcl-1 inhibitors” (Vanderbilt University, priority 2016, dated 2023) one finds Ki and GI50 data, which are given here for 16 compounds.

Like-named read-outs stand apart in the source and are kept apart here.

The target in one assay is Mcl-1 (Homo sapiens (Human), UniProt Q07820). Put plainly: TR-FRET binding assay, FITC-Bak peptide and MBP-tagged Mcl-1. The settings on record: read-out: Ki for Inhibition of Mcl-1 by TR-FRET assay. How it is done:
Compounds are diluted in DMSO in a 16-point, semilog serial dilution scheme. […] The plate was mixed and incubated for 3 hours at room temperature. […] TR-FRET signal is plotted and IC50 and Ki values are calculated in the same manner as the fluorescence polarization anisotropy based competition assays.

The test system of assay [1] is H929 human cancer cell lines. Nature of the assay: Cellular viability / proliferation (Cell TiterGlo, 72 h). The format is cell-based. In a few lines: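 1,000 cells/well, 10% FBS medium; compound added at 24 h, 2-fold dilutions from 50 μM top, DMSO <1% final. 72 h exposure, CellTiterGlo 30 min RT dark, luminescence read. IC50 by 4-parameter fit.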
(In general: Cellular ATP, detected with luciferase, serves as a proxy for viable cell number.)

Setting [2] is: Homo sapiens, NCI-H929, 72 h, read-out: GI50 on cellular proliferation of H929 human cancer cell lines, H929 cells, 72 h, Cell TiterGlo, 10% FBS.
Setting [3] is: H929 cells, 72 h, Cell TiterGlo, 10% FBS, read-out: GI50 on cellular proliferation of H929 human cancer cell lines.

Sequence of Mcl-1 (Q07820 172-327): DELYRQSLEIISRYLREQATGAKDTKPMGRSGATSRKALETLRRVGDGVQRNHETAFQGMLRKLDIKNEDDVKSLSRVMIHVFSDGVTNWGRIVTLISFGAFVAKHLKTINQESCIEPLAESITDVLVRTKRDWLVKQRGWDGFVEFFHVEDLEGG

In the case of `COc1cc(N2C[C@@H](C)n3c(c(CCCOc4cc(C)c(Cl)c(C)c4)c4ccc(Cl)c(-c5c(C)ncnc5C)c43)C2=O)c2c(c1)cc(C(=O)O)n2Cc1cc(C)ccn1` [Example 565, (R)-7-(7-chloro-10-(3-(4-chloro-3,5-dimethylphenoxy)propyl)-6-(4,6-dimethylpyrimidin-5-yl)-4-methyl-1-oxo-3,4-dihydropyrazino[1,2-a]indol-2(1H)-yl)-5-methoxy-1-((4-methylpyridin-2-yl)methyl)-1H-indole-2-carboxylic acid], the Ki – broadly, a dissociation constant, usually derived from enzyme kinetics or from competition with a known ligand – on Mcl-1 was under 0.2 nM. The GI50 in assay [1] (setting [2]) is under 200 nM.

In the case of `COCCOCCOc1cc(N2C[C@@H](C)n3c(c(CCCOc4cc(C)c(Cl)c(C)c4)c4ccc(Cl)c(-c5c(C)nn(C)c5C)c43)C2=O)c2c(c1)cc(C(=O)O)n2C` [Example 633, (R)-7-(7-chloro-10-(3-(4-chloro-3,5-dimethylphenoxy)propyl)-4-methyl-1-oxo-6-(1,3,5-trimethyl-1H-pyrazol-4-yl)-3,4-dihydropyrazino[1,2-a]indol-2(1H)-yl)-5-(2-(2-methoxyethoxy)ethoxy)-1-methyl-1H-indole-2-carboxylic acid], the Ki at Mcl-1 is under 0.2 nM. In addition, the GI50 in assay [1] (setting [3]) is under 200 nM.

As to `Cc1cc(OCCCc2c3n(c4c(-c5c(C)nn(C)c5C)c(Cl)ccc24)[C@H](C)CN(c2cn(CCN4CCN(C)CC4)c4ccc(C(=O)O)cc24)C3=O)cc(C)c1Cl` [Example 569, (R)-3-(7-chloro-10-(3-(4-chloro-3,5-dimethylphenoxy)propyl)-4-methyl-1-oxo-6-(1,3,5-trimethyl-1H-pyrazol-4-yl)-3,4-dihydropyrazino[1,2-a]indol-2(1H)-yl)-1-(2-(4-methylpiperazin-1-yl)ethyl)-1H-indole-5-carboxylic acid], on Mcl-1, the inhibition constant (Ki) is 0.49 nM. Also, in assay [1] (setting [2]), the GI50 is 470 nM.

Turning to `Cc1cc(OCCCc2c3n(c4c(-c5c(C)ncnc5C)c(Cl)ccc24)[C@H](C)CN(c2cn(C)c4cnc(C(=O)O)cc24)C3=O)cc(C)c1Cl` [Example 640, (R)-3-(7-chloro-10-(3-(4-chloro-3,5-dimethylphenoxy)propyl)-6-(4,6-dimethylpyrimidin-5-yl)-4-methyl-1-oxo-3,4-dihydropyrazino[1,2-a]indol-2(1H)-yl)-1-methyl-1H-pyrrolo[2,3-c]pyridine-5-carboxylic acid], the inhibitory constant (Ki) at Mcl-1 is under 0.2 nM. Besides, in assay [1] (setting [2]), the GI50 amounted to 8100 nM.

For the compound “(R)-7-Chloro-10-(3-(4-chloro-3,5-dimethylphenoxy)propyl)-4-methyl-2-(5-(1-methyl-1H-1,2,4-triazol-3-yl)-1-(2-morpholinoethyl)-1H-indol-3-yl)-4-(1,3,5-trimethyl-1H-pyrazol-4-yl)-3,4-dihydropyrazino[1,2-a]indol-1(2H)-one [Example 583]”, the Ki at Mcl-1 was 0.73 nM. Also, the GI50 in assay [1] (setting [3]) is under 200 nM.

With `Cc1cc(N2C[C@@H](C)n3c(c(CCCOc4cc(C)c(Cl)c(C)c4)c4ccc(Cl)c(-c5c(C)nn(C)c5C)c43)C2=O)c2c(c1)cc(C(=O)O)n2Cc1cc(N2CCOCC2)ccn1` [Example 500, (R)-7-(7-chloro-10-(3-(4-chloro-3,5-dimethylphenoxy)propyl)-4-methyl-1-oxo-6-(1,3,5-trimethyl-1H-pyrazol-4-yl)-3,4-dihydropyrazino[1,2-a]indol-2(1H)-yl)-5-methyl-1-((4-morpholinopyridin-2-yl)methyl)-1H-indole-2-carboxylic acid], at Mcl-1, the Ki was under 0.2 nM. In addition, the GI50 in assay [1] (setting [2]) worked out at 330 nM.

As to `COCCOc1cc(N2C[C@@H](C)n3c(c(CCCOc4cc(C)c(Cl)c(C)c4)c4ccc(Cl)c(-c5c(C)nn(C)c5C)c43)C2=O)c2c(c1)c(C(=O)O)cn2C` [Example 654, (R)-7-(7-chloro-10-(3-(4-chloro-3,5-dimethylphenoxy)propyl)-4-methyl-1-oxo-6-(1,3,5-trimethyl-1H-pyrazol-4-yl)-3,4-dihydropyrazino[1,2-a]indol-2(1H)-yl)-5-(2-methoxyethoxy)-1-methyl-1H-indole-3-carboxylic acid], on Mcl-1, the inhibition constant Ki was 0.34 nM. In addition, in assay [1] (setting [2]), the GI50 was 340 nM.

Turning to `COCCn1cc(N2C[C@@H](C)n3c(c(CCCOc4cc(C)c(Cl)c(C)c4)c4ccc(Cl)c(-c5c(C)nn(C)c5C)c43)C2=O)c2cc(-c3ncn(CC4CCOCC4)n3)ccc21` [Example 624, (R)-7-Chloro-10-(3-(4-chloro-3,5-dimethylphenoxy)propyl)-2-(1-(2-methoxyethyl)-5-(1-((tetrahydro-2H-pyran-4-yl)methyl)-1H-1,2,4-triazol-3-yl)-1H-indol-3-yl)-4-methyl-6-(1,3,5-trimethyl-1H-pyrazol-4-yl)-3,4-dihydropyrazino[1,2-a]indol-1(2H)-one], the Ki on Mcl-1 was found to be 9.6 nM. The GI50 in assay [1] (setting [2]) amounted to 430 nM.

Consider `COCCn1c(C(=O)O)cc2cc(COC)cc(N3C[C@@H](C)n4c(c(CCCOc5cc(C)c(Cl)c(C)c5)c5ccc(Cl)c(-c6c(C)nn(C)c6C)c54)C3=O)c21` [Example 677, (R)-7-(7-chloro-10-(3-(4-chloro-3,5-dimethylphenoxy)propyl)-4-methyl-1-oxo-6-(1,3,5-trimethyl-1H-pyrazol-4-yl)-3,4-dihydropyrazino[1,2-a]indol-2(1H)-yl)-1-(2-methoxyethyl)-5-(methoxymethyl)-1H-indole-2-carboxylic acid], for which the inhibition constant Ki at Mcl-1 was under 0.2 nM. Besides, the GI50 in assay [1] (setting [2]) was under 200 nM.

Turning to `Cc1cc(OCCCc2c3n(c4c(-c5c(C)nn(C)c5C)c(Cl)ccc24)[C@H](C)CN(c2cn(C)c4ncc(C(=O)O)cc24)C3=O)cc(C)c1Cl` [Example 575, (R)-3-(7-chloro-10-(3-(4-chloro-3,5-dimethylphenoxy)propyl)-4-methyl-1-oxo-6-(1,3,5-trimethyl-1H-pyrazol-4-yl)-3,4-dihydropyrazino[1,2-a]indol-2(1H)-yl)-1-methyl-1H-pyrrolo[2,3-b]pyridine-5-carboxylic acid], on Mcl-1, the Ki is under 0.2 nM. Also, the GI50 in assay [1] (setting [2]) was found to be 740 nM.

For `Cc1cc(OCCCc2c3n(c4c(-c5c(C)nn(C)c5C)c(Cl)ccc24)[C@H](C)CN(c2cn(Cc4ccncc4)c4ccc(C(=O)O)cc24)C3=O)cc(C)c1Cl` [Example 555, (R)-3-(7-chloro-10-(3-(4-chloro-3,5-dimethylphenoxy)propyl)-4-methyl-1-oxo-6-(1,3,5-trimethyl-1H-pyrazol-4-yl)-3,4-dihydropyrazino[1,2-a]indol-2(1H)-yl)-1-(pyridin-4-ylmethyl)-1H-indole-5-carboxylic acid], the Ki at Mcl-1 was found to be 0.26 nM. The GI50 in assay [1] (setting [2]) was 1300 nM.

Turning to `Cc1cc(OCCCc2c3n(c4c(-c5c(C)ncnc5C)c(Cl)ccc24)[C@H](C)CN(c2cn(C)c4ncc(C(=O)O)cc24)C3=O)cc(C)c1Cl` [Example 636, (R)-3-(7-chloro-10-(3-(4-chloro-3,5-dimethylphenoxy)propyl)-6-(4,6-dimethylpyrimidin-5-yl)-4-methyl-1-oxo-3,4-dihydropyrazino[1,2-a]indol-2(1H)-yl)-1-methyl-1H-pyrrolo[2,3-b]pyridine-5-carboxylic acid], the Ki at Mcl-1 was 0.5 nM. Also, the GI50 in assay [1] (setting [2]) is 980 nM.

Regarding `COCCOc1cc(N2C[C@@H](C)n3c(c(CCCOc4cc(C)c(Cl)c(C)c4)c4ccc(Cl)c(-c5c(C)ncnc5C)c43)C2=O)c2c(c1)cc(C(=O)O)n2Cc1cc(C)ccn1` [Example 573, (R)-7-(7-chloro-10-(3-(4-chloro-3,5-dimethylphenoxy)propyl)-6-(4,6-dimethylpyrimidin-5-yl)-4-methyl-1-oxo-3,4-dihydropyrazino[1,2-a]indol-2(1H)-yl)-5-(2-methoxyethoxy)-1-((4-methylpyridin-2-yl)methyl)-1H-indole-2-carboxylic acid], the Ki on Mcl-1 is under 0.2 nM. Moreover, in assay [1] (setting [2]), the GI50 was under 200 nM.

On to `Cc1ccnc(Cn2cc(C(=O)O)c3cccc(N4C[C@@H](C)n5c(c(CCCOc6cc(C)c(Cl)c(C)c6)c6ccc(Cl)c(-c7c(C)nn(C)c7C)c65)C4=O)c32)c1` [Example 480, (R)-7-(7-Chloro-10-(3-(4-chloro-3,5-dimethylphenoxy)propyl)-4-methyl-1-oxo-6-(1,3,5-trimethyl-1H-pyrazol-4-yl)-3,4-dihydropyrazino[1,2-a]indol-2(1H)-yl)-1-((4-methylpyridin-2-yl)methyl)-1H-indole-3-carboxylic acid], for which the Ki on Mcl-1 was under 0.2 nM. Further, the GI50 in assay [1] (setting [2]) was 250 nM.

As for `CCOCCOc1cc(N2C[C@@H](C)n3c(c(CCCOc4cc(C)c(Cl)c(C)c4)c4ccc(Cl)c(-c5c(C)nn(C)c5C)c43)C2=O)c2c(c1)c(C(=O)O)cn2Cc1ccccn1` [Example 610, (R)-7-(7-chloro-10-(3-(4-chloro-3,5-dimethylphenoxy)propyl)-4-methyl-1-oxo-6-(1,3,5-trimethyl-1H-pyrazol-4-yl)-3,4-dihydropyrazino[1,2-a]indol-2(1H)-yl)-5-(2-ethoxyethoxy)-1-(pyridin-2-ylmethyl)-1H-indole-3-carboxylic acid], the Ki at Mcl-1 is under 0.2 nM. The GI50 in assay [1] (setting [2]) was determined as 400 nM.

Take `Cc1cc(OCCCc2c3n(c4c(-c5c(C)nn(C)c5C)c(Cl)ccc24)[C@H](C)CN(c2cn(C)c4ccc(-c5nc(C)n(C)n5)cc24)C3=O)cc(C)c1Cl` [Example 643, (R)-7-Chloro-10-(3-(4-chloro-3,5-dimethylphenoxy)propyl)-2-(5-(1,5-dimethyl-1H-1,2,4-triazol-3-yl)-1-methyl-1H-indol-3-yl)-4-methyl-6-(1,3,5-trimethyl-1H-pyrazol-4-yl)-3,4-dihydropyrazino[1,2-a]indol-1(2H)-one]: the Ki at Mcl-1 stood at 1.3 nM. Besides, the GI50 in assay [1] (setting [2]) came out at 340 nM.
